Data published in patent publication EP2070529B1, “Medical use of 3-(2,2,2-trimethylhydrazinium) propionate orotate” (Grindeks, a joint stock company, priority 2007, dated 2009).
“And” between values parts separate entries of the source, which are not always exact repeats. Equal values may be shown once. Marks after values point to notes of the source that are not given here.

Legend:
rats = assay: Acute arrhythmia induced by calcium chloride, lethality; type: in vivo, Wistar rats; conditions: deaths/rats per group (8 rats), p.o. 14 days (Meldonium dihydrate 120 mg/kg, Meldonium orotate 204 mg/kg), last dose 24 h before, CaCl2 185 mg/kg, ECG until 10 minutes after
Procedure: Experiment was conducted on adult male Wistar rats. During the experiment, the animals were kept in Standard crates in groups of 8. The feed was a standardized diet R3 (LABFOR, Lactamin AB, Sweden). The room temperature was kept at 21-23°C, relative humidity at 65±10%, 12 hour light/darkness cycle. The experimental procedures were carried out in accordance with the guidelines of the European Community and local laws and policies and were approved by Latvian Animal Protection Ethical Committee, the Food and Veterinary Service.
An experimental acute arrhythmia was caused by introducing in rats solution of Calcium chloride.
Rats weighing 240-250 g randomized were divided into 3 groups, where in all groups there were 8 rats. During all 14 days rats got experimental preparations: Meldonium dihydrate or Meldonium orotate. The first group of 8 rats received drinking water (control group), the second group of 8 rats received Meldonium dihydrate (120 mg/kg p.o.) and the third group of 8 rats received Meldonium orotate (204 mg/kg p.o.). The last dose of experimental preparations animals got 24 h before the experiment. […] When narcosis started to influence to rat, there was cannulated left femoral vena for introducing of 10 % CaCl2 and after that there was connected ECG's recoding device (ADlnstrument PowerLab systems) and read ECG from the II lead. […]

isolated rat heart = assay: Isolated rat heart infarction model; type: in vivo, Wistar rats; conditions: by mouth for 14 days (Meldonium dihydrate 120 mg/kg, orotic acid 100mg/kg, Meldonium orotate 200 mg/kg), 60 minutes occlusion, 150 minute reperfusion
Procedure: Experiments were conducted on adult male Wistar rats with initial weight of 280-310g. During the experiment, the animals were kept in Standard crates in groups of 8. The feed was a standardized diet R70 (LABFOR, Lactamin AB, Sweden). The room temperature was kept at 21-23°C, relative humidity at 65±10%, 12 hour light/darkness cycle.
Rats weighing approximately 300 g were randomly divided in 4 groups. The first group received saline by mouth (control group), the second group 120 mg/kg Meldonium dihydrate, the third orotic acid 100mg/kg and the fourth group 200 mg/kg Meldonium orotate by mouth for 14 days.
Rats were anesthetized with sodium pentobarbital (60 mg/kg) and heparin (1 IU/g) was administrated concomitantly. Hearts were excised and retrogradely perfused via aorta at a constant pressure of 50 mm Hg, with oxygenated Krebs-Henseleit buffer ( content in mmol/L: NaCl 118, Ca Cl2 2.52, MgCl2 1.64, NaHCO3 24.88, KH2PO4 1.18, glucose 10.0, EDTA 0.05) pH 7.3-7.5 at 37°C.
A 5-0 polypropylene suture (Surgipro II, Syneture) was passed under the left anterior descending coronary artery and threaded through a small plastic tube to permit reversible occlusion of the coronart artery. Coronary flow was measured using an ultrasound flow detector (HSE) and PowerLab 8/30 system from ADlnstruments.
Hearts were adapted for 20 minutes and occlusion was performed for 60 minutes by constricting threads through a plastic tube.
At the end of the 150 minute reperfusion, the left anterior descending coronary artery was relegated and the risk zone was delineated with 0.1 % methylene blue solution in Krebs-Henseleit buffer infused via the aorta root. Hearts were sectioned transversely from the apex to the base of 2 mm thickness and incubated in 1 % triphenyl-tetrazolium chloride in phosphate buffer (pH 7.4, 37°C) for 10 minutes to stain viable tissue red and necrotic tissue white. […] Computerized planemetric analysis of photographs was performed using Image-Pro Plus 4.5.1 software to determine the area at risk (AR) and area of necrosis (AN) expressed as percentage of the left ventricle (LV). […]

Structure (SMILES) | Fatal outcome (rats; dihydrate) | Infarct size, % of control (isolated rat heart; IS = AN/AR x 100, dihydrate) | Fatal outcome (rats) | Infarct size, % of control (isolated rat heart; IS = AN/AR x 100)
C[N+](C)(C)NCCC(=O)[O-] [Meldonium dihydrate, 3-(2,2,2-Trimethylhydrazinium) propionate dihydrate] | 2/8 | 76.9±5.9 % of control |  | 
C[N+](C)(C)NCCC(=O)[O-] [Meldonium orotate, 3-(2,2,2-trimethylhydrazinium) propionate orotate] |  |  | no lethal cases and 0/8 | 49.1±6.1***^,#,& % of control
O=C(O)c1cc(=O)[nH]c(=O)[nH]1 [Orotic acid] |  |  |  | 75.0±7.7 % of control
